Laboratory results from US3954985A, “Method for inhibiting bacterial growth with certain selected 3-chloro-tetrahydro-1,3-oxazines or oxazolidines” (INTERx Research Corporation, priority 1975, dated 1976).
Several values for one entry are separate records, joined by “and”; a condition that tells them apart may be missing. Equal entries are not always repeated.

Legend:
[1] = system: Staph. epidermidis ATCC 12228; experiment: Bactericidal endpoint (time for complete sterilization), ATCC 12228; format: cell-based
From the text: (§1) The procedure employed to determine the antibacterial activity of 3-chloro-2,2,4,4-tetramethyl-tetrahydro1,3-oxazolidine and 3-chloro-2,2-[spiro-1'-methyl-4'-piperidinyl]-4,4-dimethyl-1,3-oxazolidinewas based primarily on a modification of the serial dilution method of analysis. However, instead of determining the minimum inhibitory concentration parameters for the compound investigated, applicants alternatively chose to determine the bactericidal endpoint for a given concentration of the compound investigated. Consequently, applicants' studies were established to determine the time required for complete sterilization of the micro-organism tested, when exposed to a given concentration of the compound investigated.
(§2) A stock solution of each compound identified above was prepared using an appropriate buffered solution.
(§3) For screening in the absence of a denaturing agent (e.g., horse serum) an equal volume of distilled water and the resulting solution was subjected to the screen.
(§4) For screening in the presence of a denaturing agent, a volume of the stock solution was diluted using an equal volume of 10% horse serum. When necessary, the final solution was adjusted to the desired pH using 1N HCl and the solution was permitted to stand at room temperature for thirty minutes prior to the screening procedure.
(§5) To 5 ml of the stock solution being evaluated, there was added 0.2 ml of an overnight broth culture containing the particular micro-organism being investigated (see above). At time intervals of 0.5, 1, 2, 3, 4, 5, . . . minutes, a loop of this suspension was subcultured into 5 ml of a sterile nutrient broth. All the samples were then incubated at 37°C for seven days with daily observation for evidence of bacterial growth. The time interval reported is for that sample in which no bacterial growth was observed after the incubation period.

E. coli ATCC 10536 = experiment: Bactericidal endpoint (time for complete sterilization), ATCC 10536; format: cell-based
From the text: as §1, §2, §3, §4, §5

[2] = system: Kleb. pneumoniae ATCC 10031; experiment: Bactericidal endpoint (time for complete sterilization), ATCC 10031; format: cell-based
From the text: as §1, §2, §3, §4, §5

[3] = system: Pseud. aeruginosa ATCC 9027; experiment: Bactericidal endpoint (time for complete sterilization), ATCC 9027; format: cell-based
From the text: as §1, §2, §3, §4, §5

Staph. aureus ATCC 6538 = experiment: Bactericidal endpoint (time for complete sterilization), ATCC 6538; format: cell-based
From the text: as §1, §2, §3, §4, §5

[4] = system: Bord. bronchiseptica ATCC 4617; experiment: Bactericidal endpoint (time for complete sterilization), ATCC 4617; format: cell-based
From the text: as §1, §2, §3, §4, §5

6501 = experiment: Bactericidal endpoint (time for complete sterilization), 6501; format: cell-based
From the text: as §1, §2, §3, §4, §5

[5] = Stability in the neat state at 40°C (positive chlorine by thiosulfate titration); format: physicochemical
From the text: ^a Weight of sample analyzed.
^b Volume of 10^^-2 N sodium thiosulfate required to titrate
the sample at time (T).
^c Percentage of positive chlorine in the sample analyzed.

[6] = 0.1 M NaOAc pH 4.6, H2O, 6.52 × 10^-3 M (1428 ppm)
[7] = 0.1 M NaOAc pH 4.6, Serum, 5.69 × 10^-3 M (1246 ppm)
[8] = 0.5 M NaH2PO4 pH 7.0, H2O, 20.75 × 10^-3 M (4525 ppm)
[9] = 0.5 M NaH2PO4 pH 7.0, Serum, 19.88 × 10^-3 M (4334 ppm)
[10] = 0.5 M NaOAc pH 4.6, H2O, 21.00 × 10^-3 M (4578 ppm)
[11] = 0.5 M NaOAc pH 4.6, Serum, 20.50 × 10^-3 M (4469 ppm)
[12] = 0.5 M NaH2PO4 pH 7.0, diluent not given, 19.13 × 10^-3 M (6026 ppm)
[13] = 0.5 M NaH2PO4 pH 710 (so in the source), H2O, 19.75 × 10^-3 M (6221 ppm)
[14] = 0.5 M NaOAc pH 4.6, H2O, 17.0 × 10^-3 (5355 ppm)
[15] = 0.5 M NaOAc pH 4.6, Serum, 17.0 × 10^-3 (5355 ppm)

For `CN1CCC2(CC1)OCC(C)(C)N2Cl` [3-chloro-2,2-[spiro-1'-methyl-4'-piperidinyl]-4,4-dimethyl-1,3-oxazolidine], the “Antibacterial activity, time, 12228” value [1, 6] was 1 min, the “Antibacterial activity, time, 12228” value [1, 7] was over 10 min and the “Antibacterial activity, time, 12228” value [1, 8] was 1 min. For the same molecule, the “Antibacterial activity, time, 12228” value [1, 9] was 5 min, the “Antibacterial activity, time, 12228” value [1, 10] was 0.5 min and the “Antibacterial activity, time, 12228” value [1, 11] was 2 min. The “Antibacterial activity, time, 10536” value (E. coli ATCC 10536; [6]) was 0.5 min, the “Antibacterial activity, time, 10536” value (E. coli ATCC 10536; [7]) was 2 min and the “Antibacterial activity, time, 10536” value (E. coli ATCC 10536; [8]) was 0.5 min. For the same molecule, the “Antibacterial activity, time, 10536” value (E. coli ATCC 10536; [9]) was 7 min, the “Antibacterial activity, time, 10536” value (E. coli ATCC 10536; [10]) was 0.5 min and the “Antibacterial activity, time, 10536” value (E. coli ATCC 10536; [11]) was 0.5 min. The “Antibacterial activity, time, 10031” value [2, 6] was 0.5 min, the “Antibacterial activity, time, 10031” value [2, 7] was 7 min and the “Antibacterial activity, time, 10031” value [2, 8] was 1 min. For the same molecule, the “Antibacterial activity, time, 10031” value [2, 9] was 8 min, the “Antibacterial activity, time, 10031” value [2, 10] was 0.5 min and the “Antibacterial activity, time, 10031” value [2, 11] was 0.5 min. The “Antibacterial activity, time, 9025” value [3, 6] was 0.5 min, the “Antibacterial activity, time, 9025” value [3, 7] was over 10 min and the “Antibacterial activity, time, 9027” value [3, 8] was 1 min. For the same molecule, the “Antibacterial activity, time, 9027” value [3, 9] was 10 min, the “Antibacterial activity, time, 9025” value [3, 10] was 0.5 min and the “Antibacterial activity, time, 9025” value [3, 11] was 1 min. For the same molecule, the “Antibacterial activity, time, 6538” value (Staph. aureus ATCC 6538; [6]) was 5 min, the “Antibacterial activity, time, 6538” value (Staph. aureus ATCC 6538; [7]) was over 10 min and the “Antibacterial activity, time, 6538” value (Staph. aureus ATCC 6538; [8]) was 1 min. For the same molecule, the “Antibacterial activity, time, 6538” value (Staph. aureus ATCC 6538; [9]) was over 10 min, the “Antibacterial activity, time, 6538” value (Staph. aureus ATCC 6538; [10]) was 0.5 min and the “Antibacterial activity, time, 6538” value (Staph. aureus ATCC 6538; [11]) was 3 min. The “Antibacterial activity, time, 4617” value [4, 8] was 0.5 min, the “Antibacterial activity, time, 4617” value [4, 9] was 5 min and the “Antibacterial activity, time, 4617” value [4, 10] was 0.5 min. For the same molecule, the “Antibacterial activity, time, 4617” value [4, 11] was 1 min, the “Antibacterial activity, time, 6501” value 6501; [6] was 0.5 min and the “Antibacterial activity, time, 6501” value 6501; [7] was 3 min. For the same molecule, the “Antibacterial activity, time, 6501” value 6501; [8] was 1 min, the “Antibacterial activity, time, 6501” value 6501; [9] was 7 min and the “Antibacterial activity, time, 6501” value 6501; [10] was 0.5 min. The “Antibacterial activity, time, 6501” value 6501; [11] was 0.5 min.
With `CN1CCC2(CC1)OCC(C)(C)N2Cl` the “Antibacterial activity, time, 12228” value [1, 12] was over 10 min, the “Antibacterial activity, time, 12228” value [1, 13] was 4 min and the “Antibacterial activity, time, 12228” value [1, 14] was 0.5 min. The “Antibacterial activity, time, 12228” value [1, 15] was 2 min, the “Antibacterial activity, time, 10536” value (E. coli ATCC 10536; [12]) was 4 min and the “Antibacterial activity, time, 10536” value (E. coli ATCC 10536; [13]) was 1 min. The “Antibacterial activity, time, 10536” value (E. coli ATCC 10536; [14]) was 0.5 min, the “Antibacterial activity, time, 10536” value (E. coli ATCC 10536; [15]) was 0.5 min and the “Antibacterial activity, time, 10031” value [2, 12] was over 10 min. The “Antibacterial activity, time, 10031” value [2, 13] was 1 min, the “Antibacterial activity, time, 10031” value [2, 14] was 0.5 min and the “Antibacterial activity, time, 10031” value [2, 15] was 1 min. For the same molecule, the “Antibacterial activity, time, 9027” value [3, 12] was over 10 min, the “Antibacterial activity, time, 9027” value [3, 13] was 1 min and the “Antibacterial activity, time, 9027” value [3, 14] was 0.5 min. For the same molecule, the “Antibacterial activity, time, 9027” value [3, 15] was 1 min, the “Antibacterial activity, time, 6538” value (Staph. aureus ATCC 6538; [12]) was over 10 min and the “Antibacterial activity, time, 6538” value (Staph. aureus ATCC 6538; [13]) was 4 min. The “Antibacterial activity, time, 6538” value (Staph. aureus ATCC 6538; [14]) was 1 min, the “Antibacterial activity, time, 6538” value (Staph. aureus ATCC 6538; [15]) was 6 min and the “Antibacterial activity, time, 4617” value [4, 12] was over 10 min. For the same molecule, the “Antibacterial activity, time, 4617” value [4, 13] was 1 min, the “Antibacterial activity, time, 4617” value [4, 14] was 0.5 min and the “Antibacterial activity, time, 4617” value [4, 15] was 1 min. The “Antibacterial activity, time, 6501” value 6501; [12] was over 10 min, the “Antibacterial activity, time, 6501” value 6501; [13] was 1 min and the “Antibacterial activity, time, 6501” value 6501; [14] was 0.5 min. For the same molecule, the “Antibacterial activity, time, 6501” value 6501; [15] was 1 min, the “%Cl (percentage of positive chlorine in the sample analyzed)” value ([5]; 0 days) was 10.6% and the “%Cl (percentage of positive chlorine in the sample analyzed)” value ([5]; 1 day) was 10.2% and 10.3%. For the same molecule, the “%Cl (percentage of positive chlorine in the sample analyzed)” value ([5]; 2 days) was 10.3% and 9.8%, the “%Cl (percentage of positive chlorine in the sample analyzed)” value ([5]; 3 days) was 9.8% and 10.0% and the “%Cl (percentage of positive chlorine in the sample analyzed)” value ([5]; 4 days) was 9.4%. The “%Cl (percentage of positive chlorine in the sample analyzed)” value ([5]; 5 days) was 9.7%, the “%Cl (percentage of positive chlorine in the sample analyzed)” value ([5]; 7 days) was 9.3% and 9.7% and the “%Cl (percentage of positive chlorine in the sample analyzed)” value ([5]; 10 days) was 9.8%. For the same molecule, the “%Cl (percentage of positive chlorine in the sample analyzed)” value ([5]; 14 days) was 8.8% and 9.0%, the “%Cl (percentage of positive chlorine in the sample analyzed)” value ([5]; 21 days) was 9.4% and the “%Cl (percentage of positive chlorine in the sample analyzed)” value ([5]; 28 days) was 9.4% and 9.1%. For the same molecule, the “%Cl (percentage of positive chlorine in the sample analyzed)” value ([5]; 35 days) was 8.9% and 9.0% and the “%Cl (percentage of positive chlorine in the sample analyzed)” value ([5]; 51 days) was 8.0%.
